We go through one compound from publication PMC4077706, “Lifting the Mask: Identification of New Small Molecule Inhibitors of Uropathogenic Escherichia coli Group 2 Capsule Biogenesis” (PLoS ONE, 2014).

What all share (conditions): 10 µM
One assay concerns Nicotinic Acetylcholine. Put plainly: Radioligand binding 258590. On the set-up: species or system human.
The target of a further assay is Opiate δ1 (OP1, DOP) (Homo sapiens, UniProt P41143). Format: binding. On the set-up: host or cells: HEK-293 cells.
The target in another assay is T1, Neuropeptide Y Y2 (Homo sapiens, UniProt P49146).
T1 construct: Human KAN-TS cells; host or cells: KAN-TS cells
Format: binding.

Each structure is given as a SMILES string.

Opiate δ1 (OP1, DOP), sequence (P41143 whole entry): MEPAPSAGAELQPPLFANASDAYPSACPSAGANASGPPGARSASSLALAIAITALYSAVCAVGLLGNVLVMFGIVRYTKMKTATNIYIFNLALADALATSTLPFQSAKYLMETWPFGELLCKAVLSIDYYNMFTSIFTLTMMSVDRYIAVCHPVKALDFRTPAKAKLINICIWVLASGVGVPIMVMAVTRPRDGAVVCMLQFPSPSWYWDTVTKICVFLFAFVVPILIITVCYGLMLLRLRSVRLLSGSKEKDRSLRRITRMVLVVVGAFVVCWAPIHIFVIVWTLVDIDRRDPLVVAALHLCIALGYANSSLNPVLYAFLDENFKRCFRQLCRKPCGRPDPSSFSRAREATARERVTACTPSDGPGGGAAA
T1 sequence (P49146 whole entry): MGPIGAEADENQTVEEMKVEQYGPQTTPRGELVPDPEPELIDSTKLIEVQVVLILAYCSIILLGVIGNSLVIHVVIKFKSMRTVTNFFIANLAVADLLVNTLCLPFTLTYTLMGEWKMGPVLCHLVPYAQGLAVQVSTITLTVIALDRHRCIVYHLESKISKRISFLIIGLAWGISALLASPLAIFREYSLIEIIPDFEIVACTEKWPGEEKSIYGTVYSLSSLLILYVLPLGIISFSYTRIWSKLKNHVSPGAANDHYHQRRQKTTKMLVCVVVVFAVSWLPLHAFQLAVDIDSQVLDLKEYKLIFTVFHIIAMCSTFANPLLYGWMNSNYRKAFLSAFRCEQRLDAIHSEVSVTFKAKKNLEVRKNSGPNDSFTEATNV

Turning to `CCOc1ccc(-c2cc(NC(=O)c3c(F)cccc3F)c(C(=O)O)s2)cc1` [DU011], the “% Inh.” value in the assay with Nicotinic Acetylcholine is listed as 22%; on Opiate δ1 (OP1, DOP), 10%; on Neuropeptide Y Y2, -6%.
